Experimental findings from patent US5208251A, “Styryl pyrazoles, isoxazoles and analogs thereof having activity as 5-lipoxygenase inhibitors, pharmaceutical compositions and methods of use therefor” (Warner-Lambert Company, priority 1989, dated 1993) are described below.

One may read the IC50 as the concentration that gives 50% inhibition. The low end stands for greater potency, the high end for weaker potency.

This assay concerns cyclooxygenase. Kind of assay: ARBC whole cell cyclooxygenase assay (RBL-1 cells, PGF2α). It is filed as cell-based, rat. The following applies: RBL-1 intact cell cyclooxygenase, PGF2α by RIA, A23187 5 μM. As for the experimental part:
ARBL/ARBC Whole Cell 5-Lipoxygenase and Cyclooxygenase Assays
The rat basophilic leukemia cell line (RBL-1) was obtained from the American Type Culture Collection (Rockville, Md.).
Radioimmuno assay (RIA) kits of LTB4 and PGF2α were obtained from Amersham (Arlington Heights, IL) and Seragen (Boston, Mass.) respectively.
All tissue culture media were obtained from GIBCO (Grand Island, N.Y.).
RBL-1 cells were grown in culture (suspension) in Eagle's minimum essential medium supplemented with fetal bovine serum and 1:100 antibiotic-antimycotic mixture at 37° C. in an incubator supplied with air-5% carbon dioxide. Cells were harvested by centrifugation. They were washed with cold phosphate buffered saline pH 7.4 (PBS; NaCl, 7.1 g; Na2 HPO4, 1.15 g; KH2 PO4, 0.2 g; and KCl, 0.2 g/L). […] Calcium ionophore A23187 (5 μM) was added and cells were incubated for seven minutes at 37° C. The reaction was stopped by chilling the tubes in ice for ten minutes. Cells were separated by centrifugation and the supernatant was stored at -20° . Aliquots (100 μl) were analyzed for LTB4 and PGF2α using radioimmuno assay kits as provided by the supplier.
Regarding `COC(=O)Cn1nc(C=Cc2cc(OC)c(O)c(OC)c2)cc1C` [Example 10H, 3-[β-(4'-Hydroxy-3',5'-dimethoxyphenyl)ethenyl]-5-methyl-1H-pyrazole-1-acetic acid, methyl ester], the IC50 was over 30 µM. To `Cc1cc(C=Cc2cc(C(C)(C)C)c(O)c(C(C)(C)C)c2)n(CC(=O)O)n1` [Example 10P, 5-[β-(4'-Hydroxy-3',5'-di-t-butylphenyl)ethenyl]-3-methyl-1H-pyrazole-1-acetic acid] belongs over 30 µM; to `COc1cc(C=Cc2cc(C)n(CC(=O)O)n2)cc(OC)c1O` [Example 10N, 3-[β-(4'-Hydroxy-3',5'-dimethoxyphenyl)ethenyl]-5-methyl-1H-pyrazole-1-acetic acid], over 30 µM; to `COC(=O)Cn1nc(C=Cc2cc(C(C)(C)C)c(O)c(C(C)(C)C)c2)cc1C` [Example 10G-1], over 30 µM. Turning to `Cc1cc(C(=Cc2cc(C)c(O)c(C)c2)C(=O)O)on1` [Example 52, 5-[α-carboxy-β-(4'-hydroxy-3',5'-dimethylphenyl)ethenyl]-3-methylisoxazole], the IC50 was over 20 µM.

Regarding `COC(=O)Cn1nc(C)cc1C=Cc1ccc(O)c(OC)c1` [Example 10I, 5-[β-(4'-Hydroxy-3'-methoxyphenyl)ethenyl]-3-methyl-1H-pyrazole-1-acetic acid methyl ester], the IC50 is over 25 µM. For the molecule `Cc1cc(C=Cc2cc(C(C)(C)C)c(O)c(C(C)(C)C)c2)nn1CC(=O)O` [Example 10Q, 3-[β-(4'-Hydroxy-3',5'-di-t-butylphenyl)ethenyl]-5-methyl-1H-pyrazole-1-acetic acid], the IC50 was over 30 µM. Molecule `COC(=O)C(=Cc1cc(OC)c(O)c(OC)c1)c1cc(C)no1` [Example 40, 5-[α-Carbomethoxy-β-(4'-hydroxy-3',5'-dimethoxyphenyl)ethenyl]-3-methylisoxazole] returned an IC50 of over 25 µM. With `COc1cc(C=Cc2cc(C)nn2CC(=O)O)cc(OC)c1O` [Example 10M, 5-[β-(4'-Hydroxy-3',5'-dimethoxyphenyl)ethenyl]-3-methyl-1H-pyrazole-1-acetic acid], the IC50 was over 30 µM. `CCOC(=O)Cn1nc(C)cc1/C=C/c1cc(OC)c(O)c(OC)c1` [Example 10D, (E)-5-[β-(4'-Hydroxy-3',5'-dimethoxyphenyl)ethenyl]-3-methyl-1H-pyrazole-1-acetic acid, ethyl ester] came in with a half-maximal inhibitory concentration (IC50) of over 30 µM. In turn, `Cc1cc(C=Cc2cc(Cl)cc(Cl)c2O)on1` [Example 32J, 5-[β-(2'-Hydroxy-3',5'-dichlorophenyl)ethenyl]-3-methylisoxazole] came in with an IC50 of over 30 µM. Turning to `COC(=O)Cn1nc(C)cc1C=Cc1cc(C(C)(C)C)c(O)c(C(C)(C)C)c1` [Example 10G-2], the IC50 was over 30 µM.
